Here are results for nine compounds from patent US20200163954A1 (Exelixis, Inc., priority 2014, published 2020).

Data set [1] in a line: Metabolite profiling in human plasma, urine and feces (mass balance study, [14C] cabozantinib). The format is in vivo. The conditions noted are these: for Presence in pooled fecal sample, 0-72 hours post dose / Presence in pooled fecal sample, 144-192 hours post dose: human feces; for Peak on plasma radio-chromatograms: human plasma, one subject, single 175 mg oral dose of cabozantinib (L-malate salt) with [14C] cabozantinib. Here is the method:
The objective of this study was to profile and identify metabolites of cabozantinib in human plasma, urine, and feces.
The plasma, urine, and fecal samples were collected from the 8 subjects for the metabolite profiling.
All samples were shipped to QPS LLC (Newark, Del.) and stored at −70° C. HPLC/tandem MS coupled with a radio flow-through detector (RFD) was used for metabolite profiling and identification for samples with sufficient levels of radioactivity.
HPLC fraction collection followed by counting with TopCount NXT™ was used for radioquantitation of plasma samples with sufficient levels of radioactivity. […] HPLC Method 1 was used for the analysis of pooled urine and fecal samples and individual plasma samples from different time points. […] HPLC Method 3 was used for pooled plasma samples.
For the investigation of co-eluting metabolites, nonradiolabeled plasma samples of six subjects were pooled, processed, and analyzed for pre-dose, 1-7, 8-96, and 120-336 hours post-dose. […] [^14C]
Radiolabeled and non-radiolabeled plasma samples were extracted employing the same method, using 1.0-2 mL plasma samples, depending on the volume available and radioactivity level of the samples. The supernatants were evaporated to dryness under a stream of nitrogen in an ambient water bath, and the residues were reconstituted in 0.35-0.5 mL of MeOH:ACN:water (10:20:70, v/v/v). The reconstituted samples were centrifuged at 15,000 rpm for 10 minutes. Aliquots of the supernatants were injected onto the HPLC system for analysis.
The radioactivity in pooled urine and reconstituted solution was counted using LSC, and the reconstitution recovery calculated. […] Each pooled urine sample was lyophilized, the residue was reconstituted in water:ACN:FA (80:20:0.1, v/v/v), and the reconstituted sample was centrifuged at 15,000 rpm for 10 min before analysis.
The supernatants were dried under a nitrogen stream, and the residues were reconstituted in water:ACN:FA (80:20:0.1, v/v/v). The reconstituted samples were centrifuged at 15,000 rpm for 10 min before analysis.
The system for metabolite profiling and identification (HPLC/MS/RFD) consisted of a HTC PAL autosampler, a Surveyor HPLC pump, a LTQ linear ion trap mass spectrometer, and a β-RAM Model 3 RFD. The data obtained by mass spectrometry and RFD were processed by Xcalibur and Laura Lite 3 software, respectively. The HPLC eluent was split between the RFD and mass spectrometer with a ratio of 3 to 1. The following are the summary of the conditions for HPLC, mass spectrometer, and RFD.
For plasma samples, percent of total radioactivity in the sample for each peak at each time point was calculated and converted to ng/mL.

Data set [2] in a line: PK parameters of cabozantinib and measured metabolites in human subjects. The format is in vivo. The conditions noted are these: for AUC(0-inf) / Cmax / Tmax / AUC(0-t) / half-life: human, plasma, oral, 140 mg/day; for half-life: read-out: t1/2, apparent terminal elimination half-life (converted).
For data set [3], the target named is T1, c-Met (Homo sapiens, UniProt P08581).
T1 construct: purchased EMD Millipore (Kinase Profiler service)
The data set can be described thus: Kinase activity (EMD Millipore Kinase Profiler), c-Met. The class given is biochemical. The conditions noted are these: class symbol; read-out: c-Met Std (IC50).

Data set [4] concerns the target T2, KDR (Homo sapiens, UniProt P35968).
T2 construct: purchased EMD Millipore (Kinase Profiler service)
The data set can be described thus: Kinase activity (EMD Millipore Kinase Profiler), KDR. The class given is biochemical. The following applies: class symbol; read-out: KDR Std (IC50).

The target of data set [5] is T3, Flt-3 (Homo sapiens, UniProt P36888).
T3 construct: purchased EMD Millipore (Kinase Profiler service)
T3 sequence (P36888 27-993): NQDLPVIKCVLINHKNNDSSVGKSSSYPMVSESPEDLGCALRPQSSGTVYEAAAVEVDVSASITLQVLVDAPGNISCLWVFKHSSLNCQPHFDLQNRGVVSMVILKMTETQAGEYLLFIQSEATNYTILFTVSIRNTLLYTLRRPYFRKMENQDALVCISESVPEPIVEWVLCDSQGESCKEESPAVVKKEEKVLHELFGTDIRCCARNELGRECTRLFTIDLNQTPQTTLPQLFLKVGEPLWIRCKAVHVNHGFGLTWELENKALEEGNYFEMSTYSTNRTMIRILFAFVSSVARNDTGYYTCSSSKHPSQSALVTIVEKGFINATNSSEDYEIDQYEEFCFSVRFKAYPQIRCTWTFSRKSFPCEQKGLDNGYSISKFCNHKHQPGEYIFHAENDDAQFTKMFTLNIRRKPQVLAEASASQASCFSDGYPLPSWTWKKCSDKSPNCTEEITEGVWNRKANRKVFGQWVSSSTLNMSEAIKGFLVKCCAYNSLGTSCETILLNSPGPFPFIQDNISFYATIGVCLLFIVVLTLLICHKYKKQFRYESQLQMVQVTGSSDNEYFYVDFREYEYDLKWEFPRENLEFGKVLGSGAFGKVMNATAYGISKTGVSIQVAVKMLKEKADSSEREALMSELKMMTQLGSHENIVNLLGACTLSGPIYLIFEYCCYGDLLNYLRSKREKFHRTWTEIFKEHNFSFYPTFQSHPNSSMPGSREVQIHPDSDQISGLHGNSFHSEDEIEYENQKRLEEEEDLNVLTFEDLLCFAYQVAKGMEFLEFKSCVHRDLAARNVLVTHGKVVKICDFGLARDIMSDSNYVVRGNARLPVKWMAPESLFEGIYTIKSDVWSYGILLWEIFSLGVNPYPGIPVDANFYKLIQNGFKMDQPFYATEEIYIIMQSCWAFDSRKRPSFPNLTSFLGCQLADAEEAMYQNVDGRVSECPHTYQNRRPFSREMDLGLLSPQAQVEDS
The data set can be described thus: Kinase activity (EMD Millipore Kinase Profiler), Flt-3. The format is biochemical. The conditions noted are these: class symbol; read-out: Flt-3 Std (IC50).

Data set [6] has as its target T4, Flt-4 (Homo sapiens, UniProt P35916).
T4 construct: purchased EMD Millipore (Kinase Profiler service)
The data set can be described thus: Kinase activity (EMD Millipore Kinase Profiler), Flt-4. The format is biochemical. The conditions noted are these: class symbol; read-out: Flt-4 Std (IC50).

The mark [7] stands for this setting: HPLC Method 1, single 175 mg oral dose.
Where [8] appears, read: human urine, HPLC Method 1, single 175 mg oral dose.
[9] abbreviates: eight human subjects, cabozantinib 140 mg/day, time zero to 24 hours post dose, read-out: AUC0-24.
Setting [10] is: eight human subjects, cabozantinib 140 mg/day, time zero to 72 hours post dose, read-out: AUC0-72.
The mark [11] stands for this setting: eight human subjects, cabozantinib 140 mg/day, time zero to last measurable concentration, read-out: AUC0-t.

Like-named read-outs stand apart in the source and are kept apart here.

T1 sequence (P08581 25-1390): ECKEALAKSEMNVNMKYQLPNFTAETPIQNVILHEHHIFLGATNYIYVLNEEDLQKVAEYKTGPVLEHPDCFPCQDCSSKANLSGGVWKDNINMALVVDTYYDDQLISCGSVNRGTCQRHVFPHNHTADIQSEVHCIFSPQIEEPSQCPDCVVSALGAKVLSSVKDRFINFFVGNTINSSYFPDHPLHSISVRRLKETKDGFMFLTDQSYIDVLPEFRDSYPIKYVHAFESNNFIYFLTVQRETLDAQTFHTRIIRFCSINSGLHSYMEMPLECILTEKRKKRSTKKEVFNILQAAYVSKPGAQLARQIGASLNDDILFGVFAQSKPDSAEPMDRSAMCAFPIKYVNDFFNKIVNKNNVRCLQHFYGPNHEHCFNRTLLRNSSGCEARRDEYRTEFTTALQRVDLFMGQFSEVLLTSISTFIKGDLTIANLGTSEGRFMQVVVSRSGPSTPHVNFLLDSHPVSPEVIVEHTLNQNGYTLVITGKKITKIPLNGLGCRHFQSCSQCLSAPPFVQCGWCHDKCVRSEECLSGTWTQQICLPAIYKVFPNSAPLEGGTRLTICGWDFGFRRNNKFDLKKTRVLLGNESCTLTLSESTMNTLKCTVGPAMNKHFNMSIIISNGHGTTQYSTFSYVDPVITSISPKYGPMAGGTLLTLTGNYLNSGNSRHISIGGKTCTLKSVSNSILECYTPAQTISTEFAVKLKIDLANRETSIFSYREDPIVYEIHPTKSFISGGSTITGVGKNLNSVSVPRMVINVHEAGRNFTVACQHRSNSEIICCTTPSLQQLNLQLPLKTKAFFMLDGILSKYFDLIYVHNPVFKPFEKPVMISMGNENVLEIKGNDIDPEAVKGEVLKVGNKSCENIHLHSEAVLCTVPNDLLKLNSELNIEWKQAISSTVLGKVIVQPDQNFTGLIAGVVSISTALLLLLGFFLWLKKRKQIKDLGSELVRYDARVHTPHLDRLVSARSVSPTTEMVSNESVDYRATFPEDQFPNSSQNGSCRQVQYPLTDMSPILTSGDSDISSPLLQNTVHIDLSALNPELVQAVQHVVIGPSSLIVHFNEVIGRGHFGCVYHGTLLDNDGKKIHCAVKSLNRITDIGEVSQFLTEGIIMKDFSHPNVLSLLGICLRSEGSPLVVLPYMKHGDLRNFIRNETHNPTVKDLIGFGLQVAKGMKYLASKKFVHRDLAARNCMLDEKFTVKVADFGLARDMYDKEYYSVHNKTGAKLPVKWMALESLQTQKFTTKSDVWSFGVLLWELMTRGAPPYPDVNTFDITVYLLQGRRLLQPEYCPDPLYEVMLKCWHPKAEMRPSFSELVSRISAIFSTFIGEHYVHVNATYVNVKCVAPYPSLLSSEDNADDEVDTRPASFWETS
T2 sequence (P35968 20-1356): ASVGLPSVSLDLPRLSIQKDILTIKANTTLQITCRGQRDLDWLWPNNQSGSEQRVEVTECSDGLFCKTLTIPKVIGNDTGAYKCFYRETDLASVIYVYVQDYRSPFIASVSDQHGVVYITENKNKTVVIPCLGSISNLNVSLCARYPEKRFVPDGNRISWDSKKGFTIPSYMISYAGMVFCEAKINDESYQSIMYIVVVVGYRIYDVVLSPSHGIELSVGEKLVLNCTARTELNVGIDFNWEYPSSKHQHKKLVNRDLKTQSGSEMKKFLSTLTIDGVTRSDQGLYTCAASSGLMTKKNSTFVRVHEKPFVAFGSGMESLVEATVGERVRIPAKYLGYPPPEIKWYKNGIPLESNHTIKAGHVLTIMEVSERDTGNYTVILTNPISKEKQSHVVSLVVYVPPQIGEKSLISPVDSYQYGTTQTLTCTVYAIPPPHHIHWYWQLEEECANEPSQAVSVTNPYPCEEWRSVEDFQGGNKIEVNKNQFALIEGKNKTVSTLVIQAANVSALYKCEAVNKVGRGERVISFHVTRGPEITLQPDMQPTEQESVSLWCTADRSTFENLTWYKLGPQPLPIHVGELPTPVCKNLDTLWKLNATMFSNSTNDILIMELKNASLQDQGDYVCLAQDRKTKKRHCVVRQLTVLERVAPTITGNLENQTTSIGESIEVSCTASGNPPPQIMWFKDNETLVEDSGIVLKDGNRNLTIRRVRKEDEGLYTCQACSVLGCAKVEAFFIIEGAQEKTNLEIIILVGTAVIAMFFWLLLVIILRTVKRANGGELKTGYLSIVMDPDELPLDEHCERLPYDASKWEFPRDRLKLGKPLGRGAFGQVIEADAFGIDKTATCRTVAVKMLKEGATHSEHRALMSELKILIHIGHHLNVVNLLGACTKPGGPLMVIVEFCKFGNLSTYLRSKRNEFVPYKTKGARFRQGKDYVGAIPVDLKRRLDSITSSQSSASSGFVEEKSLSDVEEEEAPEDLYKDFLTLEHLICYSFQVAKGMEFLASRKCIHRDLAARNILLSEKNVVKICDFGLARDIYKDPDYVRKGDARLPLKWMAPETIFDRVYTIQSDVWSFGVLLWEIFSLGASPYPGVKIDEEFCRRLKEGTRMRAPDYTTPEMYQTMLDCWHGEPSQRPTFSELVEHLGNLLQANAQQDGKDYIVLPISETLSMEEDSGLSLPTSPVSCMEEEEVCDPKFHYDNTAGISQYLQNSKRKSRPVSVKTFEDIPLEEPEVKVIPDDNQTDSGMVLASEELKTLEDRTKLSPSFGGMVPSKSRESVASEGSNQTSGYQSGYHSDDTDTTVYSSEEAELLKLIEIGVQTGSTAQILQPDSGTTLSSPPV
T4 sequence (P35916 25-1363): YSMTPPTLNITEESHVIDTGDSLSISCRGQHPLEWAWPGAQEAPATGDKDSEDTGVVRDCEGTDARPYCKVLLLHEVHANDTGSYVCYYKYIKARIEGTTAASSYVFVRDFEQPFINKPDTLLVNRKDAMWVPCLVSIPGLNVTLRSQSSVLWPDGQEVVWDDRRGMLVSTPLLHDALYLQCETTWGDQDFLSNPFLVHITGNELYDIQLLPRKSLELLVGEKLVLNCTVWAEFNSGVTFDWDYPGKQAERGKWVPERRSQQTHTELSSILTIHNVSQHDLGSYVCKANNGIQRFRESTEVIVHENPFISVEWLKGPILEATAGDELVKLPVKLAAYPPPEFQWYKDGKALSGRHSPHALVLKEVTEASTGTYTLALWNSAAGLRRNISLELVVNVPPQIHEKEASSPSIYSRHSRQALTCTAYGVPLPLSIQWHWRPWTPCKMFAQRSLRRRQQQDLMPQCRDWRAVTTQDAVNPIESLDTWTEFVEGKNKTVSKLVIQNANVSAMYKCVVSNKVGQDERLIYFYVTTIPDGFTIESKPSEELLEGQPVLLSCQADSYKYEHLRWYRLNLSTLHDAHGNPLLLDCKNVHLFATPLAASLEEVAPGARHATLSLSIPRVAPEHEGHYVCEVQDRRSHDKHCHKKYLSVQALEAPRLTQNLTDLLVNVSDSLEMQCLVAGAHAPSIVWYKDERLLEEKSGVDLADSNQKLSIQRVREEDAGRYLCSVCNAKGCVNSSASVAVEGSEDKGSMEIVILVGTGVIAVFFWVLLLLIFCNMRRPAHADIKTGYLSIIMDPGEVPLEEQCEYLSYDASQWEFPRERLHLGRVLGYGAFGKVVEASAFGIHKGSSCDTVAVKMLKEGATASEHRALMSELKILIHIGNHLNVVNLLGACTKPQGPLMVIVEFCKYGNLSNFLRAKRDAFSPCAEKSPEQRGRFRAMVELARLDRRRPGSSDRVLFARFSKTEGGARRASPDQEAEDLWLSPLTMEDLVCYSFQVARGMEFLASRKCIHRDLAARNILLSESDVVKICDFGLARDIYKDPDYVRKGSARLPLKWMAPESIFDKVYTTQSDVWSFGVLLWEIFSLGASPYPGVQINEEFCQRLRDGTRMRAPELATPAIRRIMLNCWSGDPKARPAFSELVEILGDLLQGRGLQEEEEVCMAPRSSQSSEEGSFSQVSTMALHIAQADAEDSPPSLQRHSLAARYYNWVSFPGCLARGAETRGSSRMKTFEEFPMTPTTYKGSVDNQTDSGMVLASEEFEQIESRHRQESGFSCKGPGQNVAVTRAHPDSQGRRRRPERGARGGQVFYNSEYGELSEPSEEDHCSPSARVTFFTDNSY

Take `COc1cc2nccc(Oc3ccc(NC(=O)C4(C(=O)O)CC4)cc3)c2cc1OC` [Compound 7, 1-[4-(6,7-Dimethoxy-quinolin-4-yloxy)-phenylcarbamoyl]-cyclopropane carboxylic Acid]: in data set [1] (setting [7]), the “Presence in pooled fecal sample, 0-72 hours post dose” value is given as “observed” and the “Presence in pooled fecal sample, 144-192 hours post dose” value was “observed”. For the same compound, in data set [1], the “Peak on plasma radio-chromatograms” value is given as “one of the minor peaks”. In addition, in data set [1] (setting [8]), the “Presence in pooled urine sample, 0-72 hours post dose” value was “observed” and the “Presence in pooled urine sample, 144-192 hours post dose” value is “observed”.

As a reminder, the AUC(0-inf) is total exposure, with the tail of the curve extrapolated. In general, Cmax refers to the maximum level reached in the sampled fluid or tissue. As usually defined, the Tmax is the time from dosing to the highest level. In the case of `COc1cc2c(Oc3ccc(NC(=O)C4(C(=O)Nc5ccc(F)cc5)CC4)cc3)cc[n+]([O-])c2cc1OC` [drawing 46], in data set [2], the AUC(0-inf) was 10300 ng·h/mL, the Cmax worked out at 118 ng/mL, the Tmax amounted to 13.5 h and the half-life was 89.2 h. For the same compound, in data set [2] (setting [9]), the AUC(0-t) came out at 2030 ng·h/mL. Also, in data set [2] (setting [10]), the AUC(0-t) stood at 5610 ng·h/mL. For the same compound, the AUC(0-t) in data set [2] (setting [11]) is 10100 ng·h/mL.

Consider `COc1cc2c(Oc3ccc(NC(=O)C4(C(=O)Nc5ccc(F)cc5)CC4)cc3)cc[n+]([O-])c2cc1OC` [Compound 19, Cabozantinib N-Oxide], for which the “Peak on plasma radio-chromatograms” value in data set [1] is reported as “major peaks”. The “Presence in pooled urine sample, 0-72 hours post dose” value in data set [1] (setting [8]) was “observed”.

On to `COc1cc2nccc(Oc3ccc(NC(=O)C4(C(=O)O)CC4)cc3)c2cc1OC` [drawing 45], for which, in data set [2], the AUC(0-inf) came to 6770 ng·h/mL, the Cmax was found to be 52.9 ng/mL, the Tmax amounted to 19 h and the half-life is 91.8 h. Also, the AUC(0-t) in data set [2] (setting [9]) worked out at 1080 ng·h/mL. The AUC(0-t) in data set [2] (setting [10]) was 3120 ng·h/mL. Also, in data set [2] (setting [11]), the AUC(0-t) was 6540 ng·h/mL.

What is called IC50 is the midpoint of a concentration-inhibition curve. Consider `COc1cc2nccc(Oc3ccc(NC(=O)C4(C(=O)Nc5ccc(F)c(O)c5)CC4)cc3)c2cc1OC` [Compound 13], for which the IC50 in data set [3], in data set [4] and in data set [5] was < 50 nM each time.

Regarding `COc1cc2nccc(Oc3ccc(NC(=O)C4(C(=O)Nc5ccc(F)cc5)CC4)cc3)c2cc1OC` [Cabozantinib, N-(4-{[6,7-bis(methyloxy)quinolin-4-yl]oxy}phenyl)-N′-(4-fluorophenyl)cyclopropane-1,1-dicarboxamide, reference compound], the “kel, apparent terminal elimination rate constant” value in data set [2] (eight human subjects, cabozantinib 140 mg/day) was 0.00712 ± 0.001 h⁻¹. In addition, in data set [2], the AUC(0-inf) amounted to 68000 ± 6910 ng·h/mL, the Cmax was found to be 1250 ng/mL and the Tmax came out at 1.49 h. Also, the AUC(0-t) in data set [2] (setting [9]) was 14300 ± 2600 ng·h/mL. In data set [2] (setting [10]), the AUC(0-t) was determined as 35000 ± 6770 ng·h/mL. For the same compound, in data set [2] (setting [11]), the AUC(0-t) worked out at 67200 ± 6880 ng·h/mL. Further, in data set [6], the IC50 is < 50 nM. In addition, the “Presence in pooled fecal sample, 0-72 hours post dose” value in data set [1] (setting [7]) is on record as “observed”. Moreover, the “Peak on plasma radio-chromatograms” value in data set [1] is “major peaks”. Moreover, the “Presence in urine samples” value in data set [1] (human urine, all samples, single 175 mg oral dose) is listed as “not observed”.

Take `COc1cc2nccc(Oc3ccc(NC(=O)C4(C(=O)Nc5ccc(F)cc5OS(=O)(=O)O)CC4)cc3)c2cc1OC` [drawing 47]: in data set [2], the AUC(0-inf) was found to be 29500 ng·h/mL, the Cmax amounted to 236 ng/mL, the Tmax was determined as 24 h and the half-life was 86 h. The AUC(0-t) in data set [2] (setting [9]) was 3970 ng·h/mL. For the same compound, the AUC(0-t) in data set [2] (setting [10]) worked out at 12600 ng·h/mL. In addition, the AUC(0-t) in data set [2] (setting [11]) came out at 28900 ng·h/mL.

Turning to `COc1cc2nccc(Oc3ccc(N)cc3)c2cc1O` [Compound 1], in data set [1] (setting [8]), the “Presence in pooled urine sample, 0-72 hours post dose” value is recorded as “observed”; the “Presence in pooled urine sample, 144-192 hours post dose” value was “observed”; the “Presence in pooled urine sample, 288-336 hours post dose” value is given as “detected”.

As for `COc1cc2nccc(Oc3ccc(NC(=O)C4(C(=O)Nc5ccc(F)cc5O)CC4)cc3)c2cc1OC` [Compound 16], the IC50 in data set [3], in data set [4] and in data set [5] was < 50 nM in each case. Moreover, the “Presence in pooled fecal sample, 0-72 hours post dose” value in data set [1] (setting [7]) is “observed”. In addition, the “Presence in pooled fecal sample, 144-192 hours post dose” value in data set [1] (setting [7]) is “observed”.
